From patent US12252472B1, “Barbituric acid derivatives, their preparation and use thereof as leukocyte transmigration inhibitors and for treating inflammatory diseases, autoimmune diseases and cancer” (BAR-ILAN UNIVERSITY, priority 2017, dated 2025)
Entries after “also recorded” stand apart in the source; their conditions may differ.

Tests used:
[1] = test system: mouse monocytes / macrophages from the abdominal cavity; test: Ten-color flow cytometry (CD115, F4/80) of peritoneal cells from the peritonitis model; format: in vivo
Procedure: After inducing the inflammation (peritonitis), compound of Formula 2 was injected at a concentration of 12.5 mg/kg (DMSO, 01% in PBS, IP), twice (one day after the other). The next day, mice were sacrificed and the peritoneal liquid was collected from the control and treated mice (n=3 for each group). Two assays were conducted for the estimation of the possible anti-inflammatory effect of compound of Formula 2: leukocyte counting (the total amount and the calculation of the percentage of different leukocyte fractions) and a flow cytometry.
Flow cytometry based on a fluorescent protein marker (CD115) was selected for the analysis. It is generated by monocytes and localized to their plasma membrane as described by Yang, J. et al. (Monocyte and macrophage differentiation: circulation inflammatory monocyte as biomarker for inflammatory diseases. Biomark Res, 2014. 2(1): p. 1). This protein is able to specifically recognize and bind a F4/80 antibody that activates the immune system macrophages (Lin, H. H., et al., The macrophage F4/80 receptor is required for the induction of antigen-specific efferent regulatory T cells in peripheral tolerance. Journal of Experimental Medicine, 2005. 201(10): p. 1615-1625).
Cell viability before the FACS experiment was assessed by incubation in the amine-reactive dye Aqua (Invitrogen) (1:500) dilution in Ca^2+ and Mg^2+-free PBS) for 30 minutes in the dark at room temperature (RT), followed by a single wash in PBS. For all experiments, cells were incubated in 0.5 μg Fc Block (BD Biosciences) for 10 minutes at room temperature (RT). Surface staining was performed in the dark for 30 minutes at 4° C. in staining buffer. A surface marker (CD115, APC clone AFS98, in dilution 1:100, from eBioscience) was used. […] Fluorescence minus one (FMO) controls were used for gating analyses to distinguish positively from negatively staining cell populations. […] Compensation matrices were calculated and applied using FlowJo software (Tree Star). […]

C57BL/6J mice = test: High-fat-diet induced non-alcoholic fatty liver disease (NAFLD) model; format: in vivo, mouse; conditions: 15 mg/kg SC or IP q3w; 30 mg/kg PO qd; 65 days
Procedure: Male C57BL/6J (Envigo, Israel) mice (3-4 weeks of age) were fed ad libitum a high fat, no high carbohydrate diet (modified Western diet, WD) with 42% kcal from fat and containing 0.1% cholesterol (Harlan TD.88137) with normal water (without high fructose-glucose solution) for […] prior to treatment initiation. Control mice were fed a standard chow diet (CD, Harlan TD.7012) with normal water (NW). Compound of Formula 2 was administrated on the 85th day of the high fat diet (15 mg/kg, for S.C and IP at q3w regiment; 30 mg/kg for PO at qd regiment) for 65 days. Mock treated (vehicle) control group was administrated with IP injections at the same volume and regiment as a corresponding treated group for 65 days. Body weight of animals was determined prior to the treatment initiation and the administered volume of the compound of Formula 2 was adjusted according to the body weight. All animals were euthanized 24 hours post last dose administration. At necropsy liver and mesenteric fat wet weights were determined. Liver and mesenteric fat were fixed with 4% buffered formalin, embedded in paraffin, sections and H&E stained. Steatohepatitis was defined by the presence of steatosis, inflammation and hepatocellular ballooning, as per the FLIP algorithm. The severity of steatosis, lobular inflammation and hepatocellular ballooning were scored using the NASH-Clinical Research Network (CRN) criteria. NAFLD activity score (NAS) was calculated by adding the scores of: steatosis (maximal score 3) is defined by more than 66% of hepatocytes containing fat droplets; lobular inflammation (maximal score 3) is defined by >4 foci/200 field; hepatocyte ballooning (maximal score 2) is defined by many cells/prominent ballooning. Ordinary one-way ANOVA statistical analysis was performed.

[2] = abdominal cavity, treated vs non-treated mice, FACS

In the case of `COC(=O)c1ccc(COc2c(C=C3C(=O)NC(=O)NC3=O)cccc2C(C)(C)C)cc1` [Formula 2, methyl 4-((2-(tert-butyl)-6-((2,4,6-trioxotetrahydropyrimidin-5(2H)-ylidene)methyl)phenoxy)methyl) benzoate], the “monocyte phenotype, CD115 expression (shift in pattern of gates 1-4)” value ([1]; C57BL/6 mouse monocytes) is reported as “reduced differentiation”, the “amount of activated (high macrophages)” value [1, 2] is reported as “considerably decreased” and the “level of non-activated (low macrophage)” value [1, 2] is reported as “elevated”. For the same compound, the NAFLD activity score (C57BL/6J mice) was “significant reduction; also recorded: therapeutic effect”, the mesenteric fat weight (C57BL/6J mice) was “significant reduction; also recorded: decreased” and the mice body weight (C57BL/6J mice) was “significant reduction”. For the same compound, the wet liver weight (C57BL/6J mice) was “significant reduction; also recorded: decreased”.
